Marks after values point to notes of the source that are not given here.
Test system: IKr ion currents
Assay: First validation: ECG repolarization changes (QTc, ERDc, LRDc) on sotalol versus baseline
Assay type: in vivo
Conditions: median (standard deviation); for ERDc 50%, Δ on drug - baseline / LRDc 50%, Δ on drug - baseline: individual correction formula
From the text: FIG. 2 illustrates one embodiment of a such a method for assessing repolarization abnormalities. At least two repolarization signals are identified 30 from a set of ECG signals. The ECG signals may be obtained from a variety of ECG capture devices as discussed above. The ECG signals may be obtained in “real-time” from a subject, or the ECG signals may be obtained from a database (which should be understood to include memory devices) storing previously obtained ECG signals.
Once the at least two repolarization signals are identified 30, principal component analysis 32 can be done on the repolarization signals to extract eigenvectors ev1 and ev2. Principal component analysis (PCA) is a way of identifying patterns in data, and is especially useful in dealing with multi-dimensional data, such as multiple repolarization signals from multiple ECG leads. PCA analysis is a mathematical technique which those skilled in the art will be familiar with, and results in a matrix of eigenvectors. As a summary of the PCA analysis, first, the mean is subtracted from each of the data dimensions. This produces a data set whose mean is zero. Next, a covariance matrix is calculated for the data. If the data has n-dimensions, then the covariance matrix will be a square n-by-n matrix. Mathematical constructs called eigenvectors and eigenvalues may be calculated for a square matrix, and so next, a set of eigenvectors and eigenvalues are calculated for the covariance matrix. For the n-by-n covariance matrix, there will be n eigenvectors. The eigenvectors are orthogonal to each other, and each has a corresponding eigenvalue. The eigenvectors can be thought of as a representation of the multi-dimension data. The eigenvector with the highest eigenvalue is the principal component of the data set. The eigenvectors may be sorted from highest to lowest, and the eigenvectors with the two highest eigenvalues may be referred to as ev1 and ev2 respectively.
Once the PCA analysis 32 has been completed, a maximum vector MV may be determined 34 based on a transformed ECG signal in a preferential plane defined by ev1 and ev2. Mathematically, MV is detected at time t=TMV, where equation 1 is fulfilled: MV=max ? {right arrow over (VECG)}(t)−{right arrow over (VECG)}(TQ) ? , Equation 1)
Referring again to FIG. 2, once the maximum vector MV has been determined, a repolarization duration which is based on the maximum vector MV is determined 36. The repolarization duration may be determined 36 by taking an arbitrary threshold percentage of the magnitude of MV and projecting the threshold magnitude relative to an endpoint of MV to determine a beginning point and an ending point on the transformed ECG signal in the plane defined by ev1 and ev2. An example of this process can be seen graphically in FIG. 3. In the example of FIG. 3, the arbitrary threshold percentage of the magnitude of MV is 30%. This threshold magnitude of 30% MV (or 30% Vmax) is projected in a circle or arc 38 around the endpoint of MV, which is labeled Vmax. Where the projected threshold 38 crosses 40 the transformed ECG signal 42 (or T-loop) on a first side of the endpoint of MV, we can define a beginning point. Since the data points are samples in time, the beginning point may be designated as the closest true data point 44 to the crossing point 40. Alternatively, the beginning point may be an interpolated data point based on the two closest data points 44 and 46. Where the projected threshold 38 crosses 48 the transformed ECG signal 42 (or T-loop) on a second side of the endpoint of MV, we can define an ending point. Since the data points are samples in time, the ending point may be designated as the closest true data point 50 to the crossing point 48. Alternatively, the ending point may be an interpolated data point based on the two closest data points 50 and 52. […]

For `CC(C)NCC(O)c1ccc(NS(C)(=O)=O)cc1` (stereo not drawn) [sotalol], the “QTc L II, Δ on drug - baseline” value (42′-48′ after dosing) was 4.0(16) ms, the “ERDc 50%, Δ on drug - baseline” value (42′-48′ after dosing) was 5.1(14)* ms and the “LRDc 50%, Δ on drug - baseline” value (42′-48′ after dosing) was 1.1(6.2)* ms. The “QTc L II, Δ on drug - baseline” value (48′-54′ after dosing) was 4.1(16) ms, the “ERDc 50%, Δ on drug - baseline” value (48′-54′ after dosing) was 4.9(14)* ms and the “LRDc 50%, Δ on drug - baseline” value (48′-54′ after dosing) was 0.6(5.2)* ms. For the same compound, the “QTc L II, Δ on drug - baseline” value (54′-1 h after dosing) was 4.3(16)* ms, the “ERDc 50%, Δ on drug - baseline” value (54′-1 h after dosing) was 4.4(12) ms and the “LRDc 50%, Δ on drug - baseline” value (54′-1 h after dosing) was 0.3(6.5) ms. For the same compound, the “QTc L II, Δ on drug - baseline” value (1 h-1 h 6′ after dosing) was 13(17)* ms, the “ERDc 50%, Δ on drug - baseline” value (1 h-1 h 6′ after dosing) was 9.5(16)** ms and the “LRDc 50%, Δ on drug - baseline” value (1 h-1 h 6′ after dosing) was 4.0(5.9)** ms.

— US7912535B2, “Method and system for assessing repolarization abnormalities” (University of Rochester, priority 2006, dated 2011)
